Drawing on ChEMBL document CHEMBL4418261, “Pyripyropene derivatives having acat2 inhibiting activity and stable to metabolizing enzymes” (2017), this text covers half-life, Ratio IC50 and IC50 for seven compounds.

Series [1] is described as follows: Half life in Sprague-Dawley rat hepatic microsomes at 6 ug/ml by LC-MS method. Format: ADME, Microsome. As to conditions: liver microsomes. Background: Liver microsomes are a subcellular fraction often used to study metabolism.
Series [2] has as its target T1, Sterol O-acyltransferase 2 (Mus musculus) (UniProt O88908).
T1 sequence (whole entry): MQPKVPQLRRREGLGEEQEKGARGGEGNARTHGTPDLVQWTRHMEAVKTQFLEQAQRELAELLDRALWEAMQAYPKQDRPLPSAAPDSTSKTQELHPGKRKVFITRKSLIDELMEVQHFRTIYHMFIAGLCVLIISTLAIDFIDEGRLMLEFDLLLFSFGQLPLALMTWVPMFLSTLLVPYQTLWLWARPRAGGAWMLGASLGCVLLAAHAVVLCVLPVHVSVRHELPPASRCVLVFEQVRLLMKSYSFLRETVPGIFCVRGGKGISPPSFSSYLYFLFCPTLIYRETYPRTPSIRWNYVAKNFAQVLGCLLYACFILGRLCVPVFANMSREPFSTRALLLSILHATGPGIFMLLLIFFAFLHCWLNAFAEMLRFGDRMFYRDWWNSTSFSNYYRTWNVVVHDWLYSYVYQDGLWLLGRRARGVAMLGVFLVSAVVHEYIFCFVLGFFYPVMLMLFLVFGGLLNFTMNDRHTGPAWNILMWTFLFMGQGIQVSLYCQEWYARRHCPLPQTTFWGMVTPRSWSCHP
Description: Potency index, ratio of PRD-043 IC50 to test compound IC50 for inhibition ACAT2 in mouse hepatic microsome membranes using [1-14C]oleoyl coenzyme A as substrate incubated for 5 mins. Format: microsomes.

In series [3] the target is T2, Sterol O-acyltransferase 2 (Mus musculus, UniProt O88908).
T2 sequence (O88908 whole entry): T1 sequence (whole entry)
Description: Inhibition of ACAT2 in mouse hepatic microsome membranes using [1-14C]oleoyl coenzyme A as substrate incubated for 5 mins. In kind it is microsomes, Liver.

In general, half-life refers to how long it takes for the measured level to halve. Read a high half-life as slow decline. By IC50 is commonly meant the point on the concentration scale where inhibition reaches its midpoint.

Turning to `COC(=O)[C@]1(C)[C@@H](OC(C)=O)CC[C@]2(C)[C@H]3[C@@H](O)c4c(cc(-c5cccnc5)oc4=O)O[C@]3(C)[C@@H](OC(=O)c3ccc(C#N)cc3)C[C@H]21`, the half-life at 6 ug/ml in series [1] was over 9 h. For the same compound, in series [2], the Ratio IC50 is 10 to 20. The same compound gave an IC50 in series [3] of 0.5 to 1 nM.

In series [1], `Cc1ccccc1[C@@H]1OC[C@@]2(C)[C@@H]3C[C@H](OC(=O)c4ccc(C#N)cc4)[C@@]4(C)Oc5cc(-c6cccnc6)oc(=O)c5[C@H](O)[C@@H]4[C@@]3(C)CC[C@@H]2O1` returned a half-life at 6 ug/ml of over 9 h. Moreover, the Ratio IC50 in series [2] was in the range of 10 to 20. The compound also yielded a 50% inhibitory concentration (IC50) in series [3] of 1 to 10 nM.

With `COc1ccc(CNC(=O)[C@]2(C)[C@@H](OC(C)=O)CC[C@]3(C)[C@H]4[C@@H](O)c5c(cc(-c6cccnc6)oc5=O)O[C@]4(C)[C@@H](OC(=O)c4ccc(C#N)cc4)C[C@H]32)c(OC)c1`, the half-life at 6 ug/ml in series [1] was over 9 h. Besides, the Ratio IC50 in series [2] is under 20. The IC50 in series [3] is under 0.5 nM.

As for `CC(=O)O[C@H]1CC[C@]2(C)[C@H]3[C@@H](O)c4c(cc(-c5cccnc5)oc4=O)O[C@]3(C)[C@@H](OC(=O)c3ccc(C#N)cc3)C[C@H]2[C@]1(C)C(=O)O`, the half-life at 6 ug/ml in series [1] is over 9 h. The Ratio IC50 in series [2] is under 20. Besides, the IC50 in series [3] was under 0.5 nM.

`COc1ccccc1[C@@H]1OC[C@@]2(C)[C@@H]3C[C@H](OC(=O)c4ccc(F)cc4)[C@@]4(C)Oc5cc(-c6cccnc6)oc(=O)c5[C@H](O)[C@@H]4[C@@]3(C)CC[C@@H]2O1` had a half-life at 6 ug/ml in series [1] of over 9 h. Besides, the Ratio IC50 in series [2] lay in the range of 10 to 20.

In the case of `Cc1cccc(C)c1[C@@H]1OC[C@@]2(C)[C@@H]3C[C@H](OC(=O)c4ccc(C#N)cc4)[C@@]4(C)Oc5cc(-c6cccnc6)oc(=O)c5[C@H](O)[C@@H]4[C@@]3(C)CC[C@@H]2O1`, in series [1], the half-life at 6 ug/ml is over 9 h. Moreover, the Ratio IC50 in series [2] fell in the range of 10 to 20.

In series [1], `CC(=O)OC[C@@]1(C)[C@@H]2C[C@H](OC(=O)c3ccc(C#N)cc3)[C@@]3(C)Oc4cc(-c5cccnc5)oc(=O)c4[C@H](O)[C@@H]3[C@@]2(C)CC[C@@H]1OC(=O)C(C)C` gave a half-life at 6 ug/ml of over 9 h. Also, the Ratio IC50 in series [2] was under 20.
